Our source for the EC50 values is patent publication US20260285846A1, “REV-ERB AGONISTS FOR TH17-MEDIATED INFLAMMATORY DISORDERS” (UNIVERSITY OF FLORID RESEARCH FOUNDATION, iNCORPORATED, priority 2021, published 2026).

pEC50: −log10 of the molar value.

The experiment concerns the target REV-ERBα LBD (Homo sapiens, UniProt P20393, DEL324-422). The experiment in a line: biochemical. The following applies: FRET assay; 6xHistag-REV-ERBα LBD with FITC-labeled SMRT corepressor peptide; read-out: REVERBα (Agonism of REV-ERBα, EC50). The method in brief:
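TR-FRET corepressor recruitment: 4 nM His-tagged human REV-ERBα LBD (residues 281-614 Δ324-422, or 381-579), 1 nM Tb-anti-His antibody and 400 nM FITC-SMRT peptide in pH 7.4 phosphate buffer with DTT; ligands in triplicate, 2 h at 4° C. 520/495 nm ratio fitted to sigmoidal dose-response for EC50.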

REV-ERBα LBD, sequence (P20393 with tags, fused parts or gaps DEL324-422): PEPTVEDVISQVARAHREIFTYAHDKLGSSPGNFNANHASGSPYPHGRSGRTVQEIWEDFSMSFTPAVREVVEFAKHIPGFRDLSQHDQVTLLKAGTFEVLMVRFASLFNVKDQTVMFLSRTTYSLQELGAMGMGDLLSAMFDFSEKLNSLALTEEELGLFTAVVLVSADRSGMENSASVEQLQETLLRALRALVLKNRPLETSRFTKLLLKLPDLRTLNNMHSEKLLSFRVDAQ
REV-ERBα LBD, sequence (Q9Y618 2335-2356 partner limits assumed): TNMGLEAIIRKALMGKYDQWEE

Turning to `CC(C)(C)Cn1cc([C@H](NS(=O)(=O)C2CC2)C(F)(F)F)c2cc(F)c(-c3cccnc3C(F)(F)F)cc21` [Compound 171, (S)—N-(2,2,2-trifluoro-1-(5-fluoro-1-neopentyl-6-(2-(trifluoromethyl)pyridin-3-yl)-1H-indol-3-yl)ethyl)cyclopropanesulfonamide], the pEC50 was above 7.00. The figure for `CC(C)(C)Cn1cc([C@H](NS(=O)(=O)C2CC2)C(F)F)c2cc(F)c(C3CCOCC3)cc21` [Compound 172, (S)—N-(2,2-difluoro-1-(5-fluoro-1-neopentyl-6-(tetrahydro-2H-pyran-4-yl)-1H-indol-3-yl)ethyl)cyclopropanesulfonamide] is above 7.00. Consider `CC(C)(C)Cn1cc([C@H](NS(=O)(=O)C2CC2)C(F)F)c2ccc(C3CCOCC3)cc21` [Compound 174, (S)—N-(2,2-difluoro-1-(1-neopentyl-6-(tetrahydro-2H-pyran-4-yl)-1H-indol-3-yl)ethyl)cyclopropanesulfonamide], for which the pEC50 is above 7.00.

Turning to `O=c1ccc(-c2nc3c(cc2F)c([C@H](NS(=O)(=O)C2CC2)C(F)F)cn3C2CCC2)c(C(F)(F)F)[nH]1` [Compound 175, (S)—N-(1-(1-cyclobutyl-5-fluoro-6-(6-oxo-2-(trifluoromethyl)-1,6-dihydropyridin-3-yl)-1H-pyrrolo[2,3-b]pyridin-3-yl)-2,2-difluoroethyl)cyclopropanesulfonamide], the pEC50 was above 7.00.

Turning to `O=S(=O)(N[C@@H](c1cn(C2COC2)c2cc(-c3ccc(F)cc3C(F)(F)F)c(F)cc12)C(F)F)C1CC1` [Compound 176, (S)—N-(2,2-difluoro-1-(5-fluoro-6-(4-fluoro-2-(trifluoromethyl)phenyl)-1-(oxetan-3-yl)-1H-indol-3-yl)ethyl)cyclopropanesulfonamide], the pEC50 was 6.00 to 7.00. Turning to `O=S(=O)(N[C@@H](c1cn(C2COC2)c2nc(-c3ccc(F)cc3C(F)(F)F)c(F)cc12)C(F)F)C1CC1` [Compound 177, (S)—N-(2,2-difluoro-1-(5-fluoro-6-(4-fluoro-2-(trifluoromethyl)phenyl)-1-(oxetan-3-yl)-1H-pyrrolo[2,3-b]pyridin-3-yl)ethyl)cyclopropanesulfonamide], the pEC50 was 6.00 to 7.00. As for `N#CC1CC(n2cc([C@H](NS(=O)(=O)C3CC3)C(F)F)c3cc(F)c(-c4ccc(F)cc4C(F)(F)F)cc32)C1` (stereo partly drawn) [Compound 179, (S)—N-(1-(1-(3-cyanocyclobutyl)-5-fluoro-6-(4-fluoro-2-(trifluoromethyl)phenyl)-1H-indol-3-yl)-2,2-difluoroethyl)cyclopropanesulfonamide], the pEC50 was above 7.00. The figure for `Nc1ccc(-c2nc3c(cc2F)c([C@H](NS(=O)(=O)C2CC2)C(F)F)cn3C2CCC2)c(C(F)(F)F)n1` [Compound 180, (S)—N-(1-(6-(6-amino-2-(trifluoromethyl)pyridin-3-yl)-1-cyclobutyl-5-fluoro-1H-pyrrolo[2,3-b]pyridin-3-yl)-2,2-difluoroethyl)cyclopropanesulfonamide] is above 7.00. With `O=S(=O)(N[C@@H](c1cn(C2CC(F)C2)c2cc(-c3ccc(F)cc3C(F)(F)F)c(F)cc12)C(F)F)C1CC1` (stereo partly drawn) [Compound 181, (S)—N-(2,2-difluoro-1-(5-fluoro-6-(4-fluoro-2-(trifluoromethyl)phenyl)-1-(3-fluorocyclobutyl)-1H-indol-3-yl)ethyl)cyclopropanesulfonamide], the negative logarithm of the EC50 (pEC50) was above 7.00. For the compound `O=S(=O)(N[C@@H](c1cn(C2CC(F)C2)c2cc(-c3cc(F)cnc3C(F)(F)F)c(F)cc12)C(F)F)C1CC1` (stereo partly drawn) [Compound 182, (S)—N-(2,2-difluoro-1-(5-fluoro-6-(5-fluoro-2-(trifluoromethyl)pyridin-3-yl)-1-(3-fluorocyclobutyl)-1H-indol-3-yl)ethyl)cyclopropanesulfonamide], the pEC50 is above 7.00.
